Several values for one entry are separate records, joined by “and”; a condition that tells them apart may be missing. Equal values may be shown once. Toxic doses and inconclusive results are not listed.
System: B16 melanoma ip, C57BL/6 mice, median survival T/C
Experiment: NCI In Vivo Anticancer Drug Screen. Data for tumor model B16 Melanoma (intraperitoneal) in C57BL/6 mice
Conditions: endpoint: median survival time, higher = longer survival
Description: The antitumor activity of compounds was measured in mice bearing transplantable tumors. Survival or tumor size were measured and the results are expressed as the measurement made in the treated group (T) divided by the measurement made in the vehicle treated control group (C). The tumor model used in this assay is B16 Melanoma (intraperitoneal) in C57BL/6 mice

[1] = dose: 25.0 mg/kg/injection, schedule: Q01DX009 (ip), vehicle: saline
[2] = dose: 100.0 mg/kg/injection, schedule: Q01DX009 (ip), vehicle: saline
[3] = dose: 8.0 mg/kg/injection, schedule: Q01DX009 (ip), vehicle: saline
[4] = dose: 16.0 mg/kg/injection, schedule: Q01DX009 (ip), vehicle: saline
[5] = dose: 31.3 mg/kg/injection, schedule: Q01DX009 (ip), vehicle: saline
[6] = dose: 1.0 mg/kg/injection, schedule: Q01DX009 (ip), vehicle: saline with Tween-80
[7] = dose: 0.25 mg/kg/injection, schedule: Q01DX009 (ip), vehicle: saline
[8] = dose: 0.5 mg/kg/injection, schedule: Q01DX009 (ip), vehicle: saline
[9] = dose: 1.0 mg/kg/injection, schedule: Q01DX009 (ip), vehicle: saline
[10] = dose: 62.5 mg/kg/injection, schedule: Q01DX009 (ip), vehicle: saline
[11] = dose: 125.0 mg/kg/injection, schedule: Q01DX009 (ip), vehicle: saline
[12] = dose: 250.0 mg/kg/injection, schedule: Q01DX009 (ip), vehicle: saline
[13] = dose: 6.25 mg/kg/injection, schedule: Q01DX009 (ip), vehicle: saline with Tween-80
[14] = dose: 12.5 mg/kg/injection, schedule: Q01DX009 (ip), vehicle: saline with Tween-80
[15] = dose: 100.0 mg/kg/injection, schedule: Q01DX009 (ip), vehicle: saline with Tween-80
[16] = dose: 200.0 mg/kg/injection, schedule: Q01DX009 (ip), vehicle: saline with Tween-80
[17] = dose: 400.0 mg/kg/injection, schedule: Q01DX009 (ip), vehicle: saline with Tween-80
[18] = dose: 5.0 mg/kg/injection, schedule: Q01DX009 (ip), vehicle: saline
[19] = dose: 10.0 mg/kg/injection, schedule: Q01DX009 (ip), vehicle: saline
[20] = dose: 1.25 mg/kg/injection, schedule: Q01DX009 (ip), vehicle: saline
[21] = dose: 2.5 mg/kg/injection, schedule: Q01DX009 (ip), vehicle: saline
[22] = dose: 6.25 mg/kg/injection, schedule: Q01DX009 (ip), vehicle: saline
[23] = dose: 12.5 mg/kg/injection, schedule: Q01DX009 (ip), vehicle: saline
[24] = dose: 50.0 mg/kg/injection, schedule: Q01DX009 (ip), vehicle: saline
[25] = dose: 25.0 mg/kg/injection, schedule: Q01DX009 (ip), vehicle: saline with Tween-80
[26] = dose: 50.0 mg/kg/injection, schedule: Q01DX009 (ip), vehicle: saline with Tween-80
[27] = dose: 3.13 mg/kg/injection, schedule: Q01DX009 (ip), vehicle: saline
[28] = dose: 200.0 mg/kg/injection, schedule: Q01DX009 (ip), vehicle: saline

Nc1ccc(Cl)cc1N
T/C (dose: 12.5 mg/kg/injection, schedule: Q01DX009 (ip), vehicle: other): 106 % of control
T/C (dose: 25.0 mg/kg/injection, schedule: Q01DX009 (ip), vehicle: other): 100 % of control
T/C (dose: 50.0 mg/kg/injection, schedule: Q01DX009 (ip), vehicle: other): 100 % of control
T/C (dose: 100.0 mg/kg/injection, schedule: Q01DX009 (ip), vehicle: other): 90 % of control

O=P1(N(CCCl)CCCl)NCCCO1 (stereo not drawn)
T/C [1]: 93 % of control
T/C [2]: 90 % of control

Nc1ncnc2c(C3OC(CO)C(O)C3O)[nH]nc12 (stereo not drawn)
T/C [3]: 153 % of control
T/C [4]: 113 % of control
T/C [5]: 157 % of control

CN(C)c1nc(N(C)C)nc(N(C)C)n1
T/C (dose: 37.5 mg/kg/injection, schedule: Q01DX009 (ip), vehicle: saline): 100 % of control
T/C (dose: 75.0 mg/kg/injection, schedule: Q01DX009 (ip), vehicle: saline): 103 % of control
T/C (dose: 150.0 mg/kg/injection, schedule: Q01DX009 (ip), vehicle: saline): 103 % of control
T/C (dose: 300.0 mg/kg/injection, schedule: Q01DX009 (ip), vehicle: saline): 103 % of control

CC(=O)OC(C)(C)/C=C/C(=O)[C@](C)(O)[C@H]1[C@H](O)C[C@@]2(C)[C@@H]3CC=C4[C@@H](C[C@H](O)C(=O)C4(C)C)[C@]3(C)C(=O)C[C@]12C
T/C (dose: 0.25 mg/kg/injection, schedule: Q01DX009 (ip), vehicle: saline with Tween-80): 92 % of control
T/C (dose: 0.5 mg/kg/injection, schedule: Q01DX009 (ip), vehicle: saline with Tween-80): 100 % of control
T/C [6]: 92 % of control

C1CN1c1nc(N2CC2)nc(N2CC2)n1
T/C (dose: 0.13 mg/kg/injection, schedule: Q01DX009 (ip), vehicle: saline): 103 % of control and 116 % of control and 120 % of control
T/C [7]: 109 % of control and 120 % of control and 122 % of control
T/C [8]: 86 % of control
T/C [9]: 100 % of control

CC1=C2C(=CC(C)(C)[C@@H]2O)C(=O)[C@](C)(O)C12CC2
T/C (dose: 0.17 mg/kg/injection, schedule: Q01DX009 (ip), vehicle: saline): 110 % of control
T/C (dose: 0.26 mg/kg/injection, schedule: Q01DX009 (ip), vehicle: saline): 106 % of control
T/C (dose: 0.4 mg/kg/injection, schedule: Q01DX009 (ip), vehicle: saline): 106 % of control
T/C (dose: 0.6 mg/kg/injection, schedule: Q01DX009 (ip), vehicle: saline): 106 % of control

COC(N)=O
T/C [10]: 100 % of control and 107 % of control
T/C [11]: 103 % of control and 106 % of control
T/C [12]: 100 % of control and 107 % of control
T/C (dose: 500.0 mg/kg/injection, schedule: Q01DX009 (ip), vehicle: saline): 110 % of control

COc1cc([C@@H]2c3cc4c(cc3C[C@H]3COC(=O)[C@@H]32)OCO4)cc(OC)c1OC
T/C [13]: 110 % of control
T/C [14]: 117 % of control

O=C(O)CCCCSc1ncnc2nc[nH]c12
T/C [15]: 110 % of control
T/C [16]: 103 % of control
T/C [17]: 114 % of control

COc1cccc2c1C(=O)c1c(O)c3c(c(O)c1C2=O)C[C@@](O)(C(C)=O)C[C@@H]3OC1CC(N)C(O)C(C)O1 (stereo partly drawn)
T/C [7]: 177 % of control
T/C [8]: 188 % of control
T/C [9]: 277 % of control
T/C (dose: 2.0 mg/kg/injection, schedule: Q01DX009 (ip), vehicle: saline): 186 % of control

O=c1[nH]cc(F)c(=O)[nH]1
T/C [18]: 113 % of control
T/C [19]: 120 % of control
T/C (dose: 20.0 mg/kg/injection, schedule: Q01DX009 (ip), vehicle: saline): 123 % of control

O=C(O)c1[nH]c(=O)[nH]c(=O)c1F
T/C [20]: 100 % of control
T/C [21]: 106 % of control and 110 % of control
T/C [18]: 100 % of control and 103 % of control
T/C [19]: 87 % of control and 89 % of control

C/C(=C\COc1ccc2ccc(=O)oc2c1)C1=CC(=O)C(C)(C)O1
T/C [15]: 94 % of control
T/C [16]: 100 % of control
T/C [17]: 94 % of control

O=NN(CCF)C(=O)NC1CCS(=O)(=O)CC1
T/C (dose: 7.5 mg/kg/injection, schedule: Q01DX001 (ip), vehicle: saline): 212 % of control
T/C (dose: 15.0 mg/kg/injection, schedule: Q01DX001 (ip), vehicle: saline): 200 % of control
T/C (dose: 30.0 mg/kg/injection, schedule: Q01DX001 (ip), vehicle: saline): 175 % of control

OCC1OC(n2cnc3c(Cl)ncnc32)C(O)C1O (stereo not drawn)
T/C [5]: 106 % of control and 107 % of control
T/C [10]: 93 % of control and 100 % of control
T/C [11]: 93 % of control and 100 % of control
T/C [12]: 86 % of control and 100 % of control

CN(C)CCCN1c2ccc(O)cc2Sc2ccc(Cl)cc21
T/C [22]: 109 % of control
T/C [23]: 115 % of control
T/C [1]: 103 % of control
T/C [24]: 103 % of control and 106 % of control
T/C [2]: 100 % of control

O=CC(S)CO (stereo not drawn)
T/C [1]: 120 % of control
T/C [24]: 120 % of control

CN1C=c2c3c(ccc2=C2C=CC4C=C5OCOC5=CC4=C21)OCO3 (stereo not drawn)
T/C [6]: 103 % of control
T/C (dose: 2.0 mg/kg/injection, schedule: Q01DX009 (ip), vehicle: saline with Tween-80): 92 % of control
T/C (dose: 4.0 mg/kg/injection, schedule: Q01DX009 (ip), vehicle: saline with Tween-80): 96 % of control

CCN(CC)CCOc1ccc2c(c1)C(=O)c1cc(OCCN(CC)CC)ccc1-2
T/C [25]: 103 % of control
T/C [26]: 92 % of control
T/C [15]: 114 % of control

O=NN(CCCl)C(=O)Nc1ccc(CCCl)cc1
T/C [27]: 267 % of control
T/C [22]: 217 % of control

Nc1nc2ncc(CNc3ccc(C(=O)NC(CCC(=O)O)C(=O)O)cc3)nc2c(=O)[nH]1 (stereo not drawn)
T/C [23]: 100 % of control and 103 % of control
T/C [1]: 97 % of control and 106 % of control

Cn1c(=O)c2ncnnc2n(C)c1=O
T/C [22]: 106 % of control
T/C [23]: 103 % of control

OC1CCCC2CCC[N-]C12.OC1CCCC2CCC[N-]C12.[O]=[V][OH] (stereo not drawn)
T/C [13]: 107 % of control
T/C [14]: 107 % of control
T/C [25]: 107 % of control

N#CSCc1ccc(Cl)cc1Cl
T/C [25]: 102 % of control
T/C [26]: 100 % of control

CC1=C2C(=C[C@@](C)(CO)[C@@H]2O)C(=O)[C@](C)(O)C12CC2
T/C (dose: 0.1 mg/kg/injection, schedule: Q01DX009 (ip), vehicle: saline): 113 % of control
T/C (dose: 0.2 mg/kg/injection, schedule: Q01DX009 (ip), vehicle: saline): 113 % of control

O=C(Nc1ccc(C2=NCCN2)cc1)c1ccc(C(=O)Nc2ccc(C3=NCCN3)cc2)cc1
T/C [3]: 100 % of control
T/C [4]: 92 % of control and 109 % of control
T/C (dose: 32.0 mg/kg/injection, schedule: Q01DX009 (ip), vehicle: saline): 92 % of control and 106 % of control
T/C (dose: 64.0 mg/kg/injection, schedule: Q01DX009 (ip), vehicle: saline): 96 % of control and 106 % of control

CCOC(=O)n1cnc2ncnc(SC)c21
T/C (dose: 15.6 mg/kg/injection, schedule: Q01DX009 (ip), vehicle: saline): 105 % of control
T/C [5]: 100 % of control
T/C [10]: 105 % of control
T/C [11]: 100 % of control

CCCCc1ccc(NC(=O)N(CCCl)N=O)cc1
T/C [27]: 200 % of control
T/C [22]: 210 % of control

COc1c(C)c2c(c(O)c1C/C=C(\C)CCC(=O)O)C(=O)OC2
T/C [1]: 106 % of control
T/C [24]: 113 % of control
T/C [2]: 110 % of control
T/C [28]: 106 % of control

CN[C@H]1CCc2cc(OC)c(OC)c(OC)c2-c2ccc(OC)c(=O)cc21
T/C [20]: 100 % of control
T/C (dose: 1.3 mg/kg/injection, schedule: Q01DX009 (ip), vehicle: saline): 100 % of control
T/C [21]: 100 % of control and 103 % of control
T/C [18]: 93 % of control and 113 % of control
T/C [19]: 93 % of control

CCSCCC(N)C(=O)O (stereo not drawn)
T/C [24]: 100 % of control
T/C [2]: 100 % of control
T/C [28]: 90 % of control

O=NN(CCCl)C(=O)Nc1ccc(CCO)cc1
T/C (dose: 1.56 mg/kg/injection, schedule: Q01DX009 (ip), vehicle: saline): 195 % of control
T/C [27]: 190 % of control

N=[N+]=CC(=O)OCC(N)C(=O)O (stereo not drawn)
T/C [27]: 96 % of control
T/C [22]: 100 % of control
T/C [23]: 86 % of control
T/C [1]: 90 % of control
